Measurements reported in PubChem BioAssay AID256 (DTP/NCI, 2004).
Inconclusive results and toxic doses are left out. Rule for the calls: active = survival T/C of 150% or more; inactive = T/C below 125% in these data.

Tested on: CD2F1 mice, L1210 leukemia ip, survival T/C
Experiment: NCI In Vivo Anticancer Drug Screen. Data for tumor model L1210 Leukemia (intraperitoneal) in CD2F1 (CDF1) mice
Conditions: higher = longer survival
Summary of the method: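 Each value reflects a quotient of treated over vehicle control outcomes in mice with a transplanted tumor.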

[1] = endpoint: mean survival time, dose: 25.0 mg/kg/injection, schedule: Q01DX009 (ip), vehicle: saline with Tween-80
[2] = endpoint: mean survival time, dose: 50.0 mg/kg/injection, schedule: Q01DX009 (ip), vehicle: saline with Tween-80
[3] = endpoint: mean survival time, dose: 100.0 mg/kg/injection, schedule: Q01DX009 (ip), vehicle: saline with Tween-80
[4] = endpoint: mean survival time, dose: 100.0 mg/kg/injection, schedule: Q04DX003 (ip), vehicle: saline with Tween-80
[5] = endpoint: mean survival time, dose: 200.0 mg/kg/injection, schedule: Q01DX009 (ip), vehicle: saline with Tween-80
[6] = endpoint: mean survival time, dose: 200.0 mg/kg/injection, schedule: Q04DX003 (ip), vehicle: saline with Tween-80
[7] = endpoint: mean survival time, dose: 400.0 mg/kg/injection, schedule: Q04DX003 (ip), vehicle: saline with Tween-80
[8] = endpoint: mean survival time, dose: 400.0 mg/kg/injection, schedule: Q01DX009 (ip), vehicle: saline with Tween-80

Measured: T/C

CSc1ccc(C2=CCCCC2)cc1
inactive: endpoint: mean survival time, dose: 100.0 mg/kg/injection, schedule: Q04DX003 (ip), vehicle: saline 91 % of control | endpoint: mean survival time, dose: 200.0 mg/kg/injection, schedule: Q04DX003 (ip), vehicle: saline 91 % of control | endpoint: mean survival time, dose: 400.0 mg/kg/injection, schedule: Q04DX003 (ip), vehicle: saline 96 % of control

CC1c2ccccc2CC(CCN(C)C)c2ccccc21 (centres undefined)
inactive: endpoint: median survival time, dose: 6.25 mg/kg/injection, schedule: Q01DX009 (ip), vehicle: saline with Tween-80 94 % of control | endpoint: median survival time, dose: 12.5 mg/kg/injection, schedule: Q01DX009 (ip), vehicle: saline with Tween-80 113 % of control | endpoint: median survival time, dose: 25.0 mg/kg/injection, schedule: Q01DX009 (ip), vehicle: saline with Tween-80 108 % of control | endpoint: median survival time, dose: 50.0 mg/kg/injection, schedule: Q01DX009 (ip), vehicle: saline with Tween-80 112 % of control

Cc1[nH]c(C(=O)NN)c(C)c1C(=O)NN
inactive: [1] 111 % of control | [2] 100 % of control | [3] 103 % of control | [4] 98 % of control

COc1ccccc1/C=C/c1ccnc2ccccc12
inactive: endpoint: mean survival time, dose: 100.0 mg/kg/injection, schedule: Q01DX009 (ip), vehicle: saline 98 % of control | endpoint: mean survival time, dose: 200.0 mg/kg/injection, schedule: Q01DX009 (ip), vehicle: saline 95 % of control | endpoint: mean survival time, dose: 400.0 mg/kg/injection, schedule: Q01DX009 (ip), vehicle: saline 96 % of control

O=C1CC2C3C=CC4C3CC2C14 (centres undefined)
inactive: endpoint: mean survival time, dose: 75.0 mg/kg/injection, schedule: Q01DX001 (ip), vehicle: saline with Tween-80 97 % of control | endpoint: mean survival time, dose: 150.0 mg/kg/injection, schedule: Q01DX001 (ip), vehicle: saline with Tween-80 101 % of control

CCCCCCCCCCCCCCCC(=O)NCCNC(=O)CCCCCCCCCCCCCCC
inactive: [2] 92 % of control | endpoint: mean survival time, dose: 75.0 mg/kg/injection, schedule: Q01DX001 (ip), vehicle: saline 98 % of control | [3] 90 % of control | endpoint: mean survival time, dose: 150.0 mg/kg/injection, schedule: Q01DX001 (ip), vehicle: saline 93 % of control | [5] 94 % of control | endpoint: mean survival time, dose: 300.0 mg/kg/injection, schedule: Q01DX001 (ip), vehicle: saline 98 % of control

O=C1CCc2cccc3cccc(c23)N1
inactive: [4] 98 % of control | [6] 98 % of control | [7] 90 % of control

CCOC(=O)C(Cc1ccccc1)C1=NC(C)(C)CC(C)O1 (centres undefined)
inactive: endpoint: mean survival time, dose: 100.0 mg/kg/injection, schedule: Q04DX003 (ip), vehicle: acetone 102 % of control | endpoint: mean survival time, dose: 200.0 mg/kg/injection, schedule: Q04DX003 (ip), vehicle: acetone 109 % of control | endpoint: mean survival time, dose: 400.0 mg/kg/injection, schedule: Q04DX003 (ip), vehicle: acetone 97 % of control

Cc1cc([N+](=O)[O-])c(Cl)cc1NS(=O)(=O)c1ccccc1
inactive: [2] 103 % of control | [3] 101 % of control | [5] 94 % of control

O=C(CNC(=O)Nc1ccc(F)cc1)NNC(=O)Nc1ccc(Cl)c([N+](=O)[O-])c1
inactive: [5] 92 % of control | [8] 88 % of control

NC(=O)c1csc(C2OC(CO)CC2O)n1 (centres undefined)
inactive: endpoint: median survival time, dose: 37.5 mg/kg/injection, schedule: Q01DX005 (ip), vehicle: water 92 % of control | endpoint: median survival time, dose: 75.0 mg/kg/injection, schedule: Q01DX005 (ip), vehicle: water 107 % of control | endpoint: median survival time, dose: 125.0 mg/kg/injection, schedule: Q01DX005 (ip), vehicle: water 104 % of control | endpoint: median survival time, dose: 150.0 mg/kg/injection, schedule: Q01DX005 (ip), vehicle: water 102 % of control | endpoint: median survival time, dose: 250.0 mg/kg/injection, schedule: Q01DX005 (ip), vehicle: water 116 % of control | endpoint: median survival time, dose: 300.0 mg/kg/injection, schedule: Q01DX005 (ip), vehicle: water 109 % of control | endpoint: median survival time, dose: 500.0 mg/kg/injection, schedule: Q01DX005 (ip), vehicle: water 121 % of control

Nc1ccc(-c2ccc(N)c([N+](=O)[O-])c2)cc1[N+](=O)[O-]
inactive: [3] 98 % of control | [4] 86 % of control | [5] 94 % of control | [6] 89 % of control | [8] 95 % of control | [7] 86 % of control

c1ccc2[nH]c(CN3CCCCC3)cc2c1
inactive: endpoint: mean survival time, dose: 12.5 mg/kg/injection, schedule: Q01DX009 (ip), vehicle: saline with Tween-80 106 % of control | [1] 100 % of control | [2] 90 % of control
